{"source": "paper PMC6681393", "about": "“Intra-Nasally Administered Oligopeptide Lunasin Acts as a Possible Anti-Psychotic Agent in Mice Models” (Medicina, 2019)", "key": {"[1]": {"system": "apomorphine-induced climbing activity", "settings": "direct central administration (intracisternally); cited from earlier work"}, "[2]": {"system": "amphetamine-induced hyper-locomotion", "settings": "direct central administration (intracisternally); cited from earlier work", "excerpt": "(§1) Thus, lunasin at both doses normalized to control the level of behavioural changes after amphetamine in ..."}, "[3]": {"system": "dopamine D2 receptor subtype", "settings": "cited from earlier work", "excerpt": "as §1"}, "[4]": {"system": "dopamine D1 receptor subtype", "settings": "cited from earlier work", "excerpt": "as §1"}, "brain monoamine levels": {"system": "brain monoamine levels", "test": "Brain monoamines and metabolites, lunasin per se (UHPLC-TOF-MS)", "format": "in vivo, male albino ICR mice", "settings": "lunasin i.n. alone; for brain dopamine level, lunasin per se (words): p < 0.01"}, "[5]": {"system": "brain monoamine levels, DOI-treated mice", "test": "Brain monoamines and metabolites, DOI-treated mice (UHPLC-TOF-MS)", "format": "in vivo, male albino ICR mice"}, "[6]": {"system": "PCP-induced hyperlocomotion in ICR mice", "test": "Open field locomotor activity, phencyclidine-induced hyperlocomotion", "format": "in vivo, male albino ICR mice", "settings": "lunasin 0.1 or 1 nmol/mouse i.n. after PCP 5 mg/kg i.p., n = 7–8"}, "5-HT2C receptor": {"system": "5-HT2C receptor", "test": "[125I]DOI binding displacement, 5-HT2C", "parameters": "species or system human", "settings": "for inhibition of [125I]DOI specific binding: mean of duplicates (n = 2)", "description": "(§2) The binding assay was performed by Eurofins Cerep (France) according to Bryant et al., 1996 [15]. Briefly, the binding of lunasin to 5-HT2A and 5-HT2C receptors was estimated on its ability to displace the specific binding of [^125I]DOI on cell membrane suspensions of HEK-293 cells expressing human recombinant 5-HT2A and 5-HT2C receptors. The radioligand [^125I]DOI has high affinity for 5-HT2A (Kd: 0.3 nM) and 5-HT2C (Kd: 0.9 nM) receptors. Lunasin was tested at concentrations of 1, 10 and 100 µM. The results were expressed as a percent of radioligand specific binding (n = 2)."}, "[7]": {"system": "brain monoamine levels, amphetamine-treated mice", "test": "Brain monoamines and metabolites, amphetamine-treated mice (UHPLC-TOF-MS)", "format": "in vivo, male albino ICR mice", "settings": "for amphetamine-altered brain noradrenaline level (words): lunasin 0.1 nmol/mouse i.n."}, "[8]": {"system": "amphetamine-induced hyperlocomotion in ICR mice", "test": "Open field locomotor activity, amphetamine-induced hyperlocomotion", "format": "in vivo, male albino ICR mice", "settings": "for Locomotion (distance, cm): 15-min open field; for Locomotion (distance, cm) / effect on amphetamine hyperlocomotion: n = 7–8"}, "5-HT2A receptor": {"system": "5-HT2A receptor", "test": "[125I]DOI binding displacement, 5-HT2A", "parameters": "species or system human", "settings": "for inhibition of [125I]DOI specific binding: mean of duplicates (n = 2)", "description": "as §2"}, "[9]": {"system": "locomotion altered by ketamine", "settings": "central (intracisternal) injection; cited from earlier work"}, "[10]": {"system": "locomotor activity of ICR mice", "test": "Open field locomotor activity, lunasin per se", "format": "in vivo, male albino ICR mice", "settings": "lunasin 0.1 or 1 nmol/mouse i.n. alone; 15-min test; n = 7–8"}, "[11]": {"system": "DOI-induced hyperlocomotion in ICR mice", "test": "Open field locomotor activity, DOI-induced hyperlocomotion", "format": "in vivo, male albino ICR mice", "settings": "for effect on DOI hyperactivity (words): lunasin 1 nmol/mouse i.n., p = 0.0137"}, "[12]": {"settings": "lunasin 0.1 nmol/mouse i.n. + DOI 3 mg/kg i.p., n = 6–8"}, "[13]": {"settings": "lunasin 1 nmol/mouse i.n. + DOI 3 mg/kg i.p., n = 6–8"}, "[14]": {"settings": "lunasin 1 nmol/mouse i.n., p < 0.01"}, "[15]": {"settings": "lunasin 0.1 and 1 nmol/mouse i.n., p < 0.0001"}, "[16]": {"settings": "lunasin i.n., DOI-treated mice, dose not stated"}, "[17]": {"settings": "1 and 10 µM, HEK-293 cell membranes"}, "[18]": {"settings": "lunasin 0.1 nmol/mouse i.n. + amphetamine 3 mg/kg i.p., n = 6–8"}, "[19]": {"settings": "lunasin 1 nmol/mouse i.n. + amphetamine 3 mg/kg i.p., n = 6–8"}, "[20]": {"settings": "lunasin i.n., amphetamine-treated mice, dose not stated"}}, "note": "Entries after “also recorded” stand apart in the source; their conditions may differ. Wherever 5-HIAA (brain level, ng/g) is given: key: ↑: increase; ↓: decrease; N: normalization; Nc: no changes. Wherever 5-HT (brain level, ng/g) is given: key: ↑: increase; ↓: decrease; N: normalization; Nc: no changes. Wherever HVA (brain level, ng/g) is given: key: ↑: increase; ↓: decrease; N: normalization; Nc: no changes. Wherever NA (brain noradrenaline level, ng/g) is given: key: ↑: increase; ↓: decrease; N: normalization; Nc: no changes.", "data": [{"substance": "lunasin", "values": [{"measurement": "apomorphine-induced climbing activity", "setting": "[1]", "value": "reduced amphetamine-induced hyper-locomotion and apomorphine-induced climbing activity"}, {"measurement": "amphetamine-induced hyper-locomotion", "setting": "[2]", "value": "reduced amphetamine-induced hyper-locomotion"}, {"measurement": "dopamine D2 receptor binding", "setting": "[3]", "value": "does not bind to the dopamine D2 receptor subtype"}, {"measurement": "dopamine D1 receptor affinity", "setting": "[4]", "value": "has an affinity similar to that of dopamine"}, {"measurement": "brain DOPAC concentration, lunasin per se", "setting": "brain monoamine levels", "value": "Neither lunasin per se nor amphetamine changed the DOPAC concentration"}, {"measurement": "brain dopamine level, lunasin per se (words)", "setting": "brain monoamine levels", "value": "significantly decreased dopamine level"}, {"measurement": "brain dopamine level, lunasin per se (words)", "setting": "brain monoamine levels; listed as lunasin", "value": "significantly decreased dopamine levels"}, {"measurement": "5-HIAA (brain level, ng/g)", "setting": "[5]; [12]", "value": "N"}, {"measurement": "5-HT (brain level, ng/g)", "setting": "[5]; [12]", "value": "N"}, {"measurement": "NA (brain noradrenaline level, ng/g)", "setting": "[5]; [12]", "value": "N"}, {"measurement": "5-HIAA (brain level, ng/g)", "setting": "[5]; [13]", "value": "N"}, {"measurement": "5-HT (brain level, ng/g)", "setting": "[5]; [13]", "value": "N"}, {"measurement": "HVA (brain level, ng/g)", "setting": "[5]; [13]", "value": "N"}, {"measurement": "NA (brain noradrenaline level, ng/g)", "setting": "[5]; [13]", "value": "N"}, {"measurement": "DOI-altered brain HVA level", "setting": "[5]; [14]", "value": "normalized the altered levels of HVA"}, {"measurement": "DOI-altered brain noradrenaline level", "setting": "[5]; lunasin 0.1 and 1 nmol/mouse i.n. (both tested doses), p < 0.01", "value": "reversed amphetamine-induced and DOI-induced (both tested doses) noradrenaline alterations to the control values"}, {"measurement": "DOI-increased brain 5-HIAA level", "setting": "[5]; [15]", "value": "reversed the DOI up-regulated levels of serotonin and 5-HIAA almost to the control values; also recorded: fully normalized them to the control values"}, {"measurement": "DOI-increased brain serotonin level", "setting": "[5]; [15]", "value": "reversed the DOI up-regulated levels of serotonin and 5-HIAA almost to the control values; also recorded: fully normalized them to the control values"}, {"measurement": "brain monoamine levels, summary", "setting": "[5]; [16]", "value": "fully normalized hyper-locomotion and brain monoamine levels"}, {"measurement": "DOI-increased brain DOPAC level", "setting": "[5]; lunasin i.n., dose not stated", "value": "These altered parameters were normalized by lunasin"}, {"measurement": "DOI-lowered brain HVA level", "setting": "[5]; lunasin i.n., dose not stated", "value": "These altered parameters were normalized by lunasin"}, {"measurement": "DOI-lowered brain noradrenaline level", "setting": "[5]; lunasin i.n., dose not stated", "value": "These altered parameters were normalized by lunasin"}, {"measurement": "effect on PCP hyperlocomotion (words)", "setting": "[6]", "value": "Phencyclidine behavioural effects were not influenced"}, {"measurement": "effect on PCP hyperlocomotion (words)", "setting": "[6]; listed as lunasin", "value": "did not influence the PCP effect; also recorded: we did not find any influence of lunasin on PCP-induced hyperactivity"}, {"measurement": "inhibition of [125I]DOI specific binding", "setting": "5-HT2C receptor; 1 µM, HEK-293 cell membranes", "value": 4.7, "unit": "%"}, {"measurement": "inhibition of [125I]DOI specific binding", "setting": "5-HT2C receptor; 10 µM, HEK-293 cell membranes", "value": 10.3, "unit": "%"}, {"measurement": "inhibition of [125I]DOI specific binding", "setting": "5-HT2C receptor; 100 µM, HEK-293 cell membranes", "value": 59.7, "unit": "%"}, {"measurement": "binding activity", "setting": "5-HT2C receptor; 100 µM, compared with 5-HT2A", "value": "more considerable"}, {"measurement": "binding activity", "setting": "5-HT2C receptor; [17]", "value": "did not show binding activity"}, {"measurement": "receptor affinity", "setting": "5-HT2C receptor; compared with DOI, abstract", "value": "low affinity of lunasin (at µM concentrations)"}, {"measurement": "5-HIAA (brain level, ng/g)", "setting": "[7]; [18]", "value": "N"}, {"measurement": "DA (brain dopamine level, ng/g)", "setting": "[7]; [18]", "value": "N"}, {"measurement": "NA (brain noradrenaline level, ng/g)", "setting": "[7]; [18]", "value": "N"}, {"measurement": "amphetamine-altered brain noradrenaline level (words)", "setting": "[7]; p < 0.01", "value": "reversed amphetamine-induced and DOI-induced (both tested doses) noradrenaline alterations to the control values"}, {"measurement": "amphetamine-altered brain noradrenaline level (words)", "setting": "[7]; p < 0.01, listed as lunasin", "value": "normalized noradrenaline level to control values"}, {"measurement": "5-HIAA (brain level, ng/g)", "setting": "[7]; [19]", "value": "N"}, {"measurement": "5-HT (brain level, ng/g)", "setting": "[7]; [19]", "value": "N"}, {"measurement": "DA (brain dopamine level, ng/g)", "setting": "[7]; [19]", "value": "N"}, {"measurement": "HVA (brain level, ng/g)", "setting": "[7]; [19]", "value": "N"}, {"measurement": "amphetamine-altered brain HVA level", "setting": "[7]; lunasin 1 nmol/mouse i.n., p < 0.001", "value": "normalized the altered levels of HVA; also recorded: reversed to control value the elevated levels of dopamine and its metabolite HVA"}, {"measurement": "amphetamine-increased brain serotonin level", "setting": "[7]; [14]", "value": "decreased the augmented serotonin; also recorded: fully normalized the levels of serotonin"}, {"measurement": "amphetamine-increased brain 5-HIAA level", "setting": "[7]; lunasin 0.1 and 1 nmol/mouse i.n. (both doses), p < 0.0001", "value": "decreased the augmented serotonin (p < 0.01, Figure 2d) at both doses, as well as 5-HIAA levels; also recorded: fully normalized the levels of serotonin and its metabolite 5-HIAA (both tested doses)"}, {"measurement": "amphetamine-increased brain dopamine level", "setting": "[7]; [15]", "value": "reversed to control values; also recorded: reversed to control value the elevated levels of dopamine"}, {"measurement": "brain monoamine levels, summary", "setting": "[7]; [20]", "value": "fully normalized hyper-locomotion and brain monoamine levels"}, {"measurement": "Locomotion (distance, cm)", "setting": "[8]; lunasin 0.1 nmol/mouse i.n. 15 min after amphetamine 3 mg/kg i.p.", "value": "N"}, {"measurement": "effect on amphetamine hyperlocomotion", "setting": "[8]; lunasin 0.1 nmol/mouse i.n., p = 0.0031", "value": "considerably decreased; also recorded: normalized to control the level of behavioural changes after amphetamine injection"}, {"measurement": "Locomotion (distance, cm)", "setting": "[8]; lunasin 1 nmol/mouse i.n. 15 min after amphetamine 3 mg/kg i.p.", "value": "N"}, {"measurement": "effect on amphetamine hyperlocomotion", "setting": "[8]; lunasin 1 nmol/mouse i.n., p = 0.0018", "value": "considerably decreased; also recorded: normalized to control the level of behavioural changes after amphetamine injection"}, {"measurement": "hyper-locomotion, summary", "setting": "[8]; [20]", "value": "fully normalized hyper-locomotion"}, {"measurement": "inhibition of [125I]DOI specific binding", "setting": "5-HT2A receptor; 1 µM, HEK-293 cell membranes", "value": 1.6, "unit": "%"}, {"measurement": "inhibition of [125I]DOI specific binding", "setting": "5-HT2A receptor; 10 µM, HEK-293 cell membranes", "value": 2.6, "unit": "%"}, {"measurement": "binding activity", "setting": "5-HT2A receptor; 100 µM", "value": "weak binding activity"}, {"measurement": "inhibition of [125I]DOI specific binding", "setting": "5-HT2A receptor; 100 µM, HEK-293 cell membranes", "value": 32.5, "unit": "%"}, {"measurement": "binding activity", "setting": "5-HT2A receptor; [17]", "value": "did not show binding activity"}, {"measurement": "receptor affinity", "setting": "5-HT2A receptor; compared with DOI, abstract", "value": "low affinity of lunasin (at µM concentrations)"}, {"measurement": "effect on locomotion altered by ketamine", "setting": "[9]", "value": "did not influence locomotion altered by ketamine"}, {"measurement": "effect of lunasin per se on locomotion", "setting": "[10]", "value": "did not influence mouse activity"}, {"measurement": "Locomotion (distance, cm)", "setting": "[11]; lunasin 1 nmol/mouse i.n. 15 min after DOI 3 mg/kg i.p., 15-min open field, n = 7–8", "value": "N"}, {"measurement": "effect on DOI hyperactivity (words)", "setting": "[11]; n = 7–8", "value": "exerted protection against DOI-induced hyper-locomotion"}, {"measurement": "effect on DOI hyperactivity (words)", "setting": "[11]; n = 7–8, listed as lunasin", "value": "decreased hyperactivity"}, {"measurement": "hyper-locomotion, summary", "setting": "[11]; [16]", "value": "fully normalized hyper-locomotion"}]}]}
